Assay results taken from US11912703B2, “6-azaindole compounds” (BRISTOL-MYERS SQUIBB COMPANY, priority 2017, dated 2024).
Read-outs that look alike come from different tables or passages of the source.

Experiments:
[1] = target: human TLR7 (Homo sapiens (Human), UniProt Q9NYK1); assay: TLR7 inhibition reporter assay (HEK-Blue SEAP); type: cell-based; details: HEK-Blue cells overexpressing human TLR7, gardiquimod 7.5 μM stimulation
[2] = target: human TLR8 (Homo sapiens (Human), UniProt Q9NR97); assay: TLR8 inhibition reporter assay (HEK-Blue SEAP);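 note: SEAP driven by IFN-β minimal promoter with five NF-κB and AP-1 sites, compounds tested 0.05 nM to 50 µM, 22 h incubation, inhibition relative to agonist plus DMSO wells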
Protocol: HEK-Blue™-cells (Invivogen) overexpressing human TLR7, TLR8 or TLR9 receptors were used for screening inhibitors of these receptors using an inducible SEAP (secreted embryonic alkaline phosphatase) reporter gene under the control of the IFN-β minimal promoter fused to five NF-κB and AP-1-binding sites. Briefly, cells are seeded into Greiner 384 well plates (15000 cells per well for TLR7, 20,000 for TLR8 and 25,000 for TLR9) and then treated with test compounds in DMSO to yield a final dose response concentration range of 0.05 nM-50 μM. After a 30 minute compound pre-treatment at room temperature, the cells are then stimulated with a TLR7 ligand (gardiquimod at a final concentration of 7.5 μM), TLR8 ligand (R848 at a final concentration of 15.9 μM) or TLR9 ligand (ODN2006 at a final concentration of 5 nM) to activate NF-κB and AP-1 which induce the production of SEAP. After a 22 hour incubation at 37° C., 500 CO2, SEAP levels are determined with the addition of HEK-Blue™ Detection reagent (Invivogen), a cell culture medium that allows for detection of SEAP, according to manufacturer's specifications.

[3] = target: human TLR9 (Homo sapiens (Human), UniProt Q9NR96); assay: TLR9 inhibition reporter assay (HEK-Blue SEAP);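 note: SEAP driven by IFN-β minimal promoter carrying five NF-κB and AP-1 sites, 22 h at 37 °C, compounds 0.05 nM–50 µM, inhibition scaled between agonist-plus-DMSO and reference-inhibitor wells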
[4] = read-out: TLR8 IC50; HEK-Blue cells overexpressing human TLR8, R848 15.9 μM stimulation, SEAP reporter
[5] = read-out: TLR9 IC50; HEK-Blue cells overexpressing human TLR9, ODN2006 5 nM stimulation, SEAP reporter
[6] = read-out: TLR8 IC50; HEK-Blue cells overexpressing human TLR8; R848 15.9 μM stimulation; SEAP reporter
[7] = read-out: TLR9 IC50; HEK-Blue cells overexpressing human TLR9; ODN2006 5 nM stimulation; SEAP reporter

human TLR9, sequence (Q9NR96 26-1032): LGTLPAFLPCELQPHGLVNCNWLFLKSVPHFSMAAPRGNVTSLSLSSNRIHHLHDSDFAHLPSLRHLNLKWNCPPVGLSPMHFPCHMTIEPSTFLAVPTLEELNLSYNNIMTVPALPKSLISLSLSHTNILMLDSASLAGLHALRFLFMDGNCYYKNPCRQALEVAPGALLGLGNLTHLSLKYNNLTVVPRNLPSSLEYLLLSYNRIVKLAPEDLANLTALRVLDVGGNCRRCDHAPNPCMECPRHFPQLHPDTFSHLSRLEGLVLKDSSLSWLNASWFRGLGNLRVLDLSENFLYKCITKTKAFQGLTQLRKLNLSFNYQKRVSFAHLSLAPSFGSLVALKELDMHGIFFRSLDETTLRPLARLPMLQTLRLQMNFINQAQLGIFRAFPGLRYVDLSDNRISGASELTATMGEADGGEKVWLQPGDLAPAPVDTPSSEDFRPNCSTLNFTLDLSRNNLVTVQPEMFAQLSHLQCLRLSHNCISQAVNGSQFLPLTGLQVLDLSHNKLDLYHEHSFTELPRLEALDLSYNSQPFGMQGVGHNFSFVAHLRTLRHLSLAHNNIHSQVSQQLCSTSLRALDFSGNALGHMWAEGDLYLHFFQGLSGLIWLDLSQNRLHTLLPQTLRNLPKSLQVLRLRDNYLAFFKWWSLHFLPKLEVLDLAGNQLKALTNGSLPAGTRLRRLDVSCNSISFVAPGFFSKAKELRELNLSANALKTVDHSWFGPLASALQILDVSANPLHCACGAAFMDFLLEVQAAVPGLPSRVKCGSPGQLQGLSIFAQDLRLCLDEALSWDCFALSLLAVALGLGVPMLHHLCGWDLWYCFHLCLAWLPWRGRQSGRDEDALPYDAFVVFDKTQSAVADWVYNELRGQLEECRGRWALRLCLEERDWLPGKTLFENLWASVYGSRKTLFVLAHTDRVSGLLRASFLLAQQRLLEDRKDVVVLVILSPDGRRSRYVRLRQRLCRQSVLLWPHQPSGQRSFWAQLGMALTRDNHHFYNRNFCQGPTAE
human TLR8, sequence (Q9NR97 27-1041): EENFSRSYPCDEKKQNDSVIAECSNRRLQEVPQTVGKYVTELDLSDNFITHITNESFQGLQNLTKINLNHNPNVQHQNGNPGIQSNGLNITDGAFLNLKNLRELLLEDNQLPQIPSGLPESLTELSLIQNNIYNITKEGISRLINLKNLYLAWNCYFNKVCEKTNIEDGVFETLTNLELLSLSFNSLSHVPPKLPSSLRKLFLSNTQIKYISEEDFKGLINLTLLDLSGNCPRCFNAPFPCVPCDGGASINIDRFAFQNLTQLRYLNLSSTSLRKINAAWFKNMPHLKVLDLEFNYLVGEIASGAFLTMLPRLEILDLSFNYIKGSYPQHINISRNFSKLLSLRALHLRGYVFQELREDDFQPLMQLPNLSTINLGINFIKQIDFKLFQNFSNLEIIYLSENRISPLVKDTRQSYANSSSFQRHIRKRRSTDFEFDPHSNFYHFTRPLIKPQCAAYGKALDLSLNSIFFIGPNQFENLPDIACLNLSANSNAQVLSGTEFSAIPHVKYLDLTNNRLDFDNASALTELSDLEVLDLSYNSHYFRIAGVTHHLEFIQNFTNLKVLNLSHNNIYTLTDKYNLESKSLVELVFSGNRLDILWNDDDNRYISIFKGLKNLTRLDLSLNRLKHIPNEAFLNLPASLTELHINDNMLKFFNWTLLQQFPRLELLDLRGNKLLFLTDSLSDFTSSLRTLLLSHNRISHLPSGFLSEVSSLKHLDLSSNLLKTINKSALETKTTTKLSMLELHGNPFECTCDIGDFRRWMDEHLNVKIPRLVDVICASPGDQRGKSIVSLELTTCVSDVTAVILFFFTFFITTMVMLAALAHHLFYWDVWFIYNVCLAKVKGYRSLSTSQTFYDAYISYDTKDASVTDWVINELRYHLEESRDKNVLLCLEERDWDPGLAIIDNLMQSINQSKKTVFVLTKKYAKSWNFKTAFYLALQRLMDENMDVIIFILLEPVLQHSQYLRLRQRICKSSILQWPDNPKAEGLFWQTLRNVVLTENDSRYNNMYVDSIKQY
human TLR7, sequence (Q9NYK1 27-1049): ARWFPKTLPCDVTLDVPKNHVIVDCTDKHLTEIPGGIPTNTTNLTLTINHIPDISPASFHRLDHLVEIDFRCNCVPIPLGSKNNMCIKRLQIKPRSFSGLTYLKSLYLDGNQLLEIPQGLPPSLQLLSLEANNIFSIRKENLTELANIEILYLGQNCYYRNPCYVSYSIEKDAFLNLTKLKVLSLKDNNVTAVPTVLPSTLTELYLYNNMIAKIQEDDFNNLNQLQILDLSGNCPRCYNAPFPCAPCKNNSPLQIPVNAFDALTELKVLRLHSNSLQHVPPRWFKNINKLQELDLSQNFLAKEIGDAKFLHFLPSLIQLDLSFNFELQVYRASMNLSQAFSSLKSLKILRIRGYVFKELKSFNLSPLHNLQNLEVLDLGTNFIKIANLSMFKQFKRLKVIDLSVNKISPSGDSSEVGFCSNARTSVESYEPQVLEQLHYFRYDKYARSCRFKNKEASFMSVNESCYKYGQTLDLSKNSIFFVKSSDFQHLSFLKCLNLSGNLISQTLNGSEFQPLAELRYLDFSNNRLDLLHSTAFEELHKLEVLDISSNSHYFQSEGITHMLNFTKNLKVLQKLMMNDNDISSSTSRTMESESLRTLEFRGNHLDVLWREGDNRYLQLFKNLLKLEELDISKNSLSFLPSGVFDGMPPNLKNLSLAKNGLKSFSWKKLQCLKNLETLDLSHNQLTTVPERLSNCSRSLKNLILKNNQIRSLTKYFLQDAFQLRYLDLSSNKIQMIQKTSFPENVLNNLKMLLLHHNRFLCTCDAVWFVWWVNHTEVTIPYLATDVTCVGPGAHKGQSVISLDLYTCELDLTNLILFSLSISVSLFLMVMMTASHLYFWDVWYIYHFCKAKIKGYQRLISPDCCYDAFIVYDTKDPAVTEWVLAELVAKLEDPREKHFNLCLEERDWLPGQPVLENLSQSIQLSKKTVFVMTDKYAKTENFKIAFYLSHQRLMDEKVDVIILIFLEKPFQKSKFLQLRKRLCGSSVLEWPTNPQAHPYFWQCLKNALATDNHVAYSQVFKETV

IC50 [1] [nM] | IC50 [2, 4] [nM] | IC50 [3, 5] [nM] | IC50 [2, 6] [nM] | IC50 [3, 7] [nM] | IC50 [3] [nM] | SMILES
15 | 6.1 | 18500 | – | – | – | CNC(=O)CN1CC2(C1)CN(c1ncc3[nH]c(-c4cc(OC)c5ncnn5c4)c(C(C)C)c3c1F)C2 [Example 356, 2-(6-(4-fluoro-3-isopropyl-2-(8-methoxy-[1,2,4]triazolo[1,5-a]pyridin-6-yl)-1H-pyrrolo[2,3-c]pyridin-5-yl)-2,6-diazaspiro[3.3]heptan-2-yl)-N-methylacetamide]
3 | 1.1 | 2080 | – | – | – | Cc1cc(-c2[nH]c3cnc(N4CCC(N(C)CC(C)(C)C)CC4)c(F)c3c2C(C)C)cn2ncnc12 [Example 196]
33 | 33 | 683 | – | – | – | CCN(C)C1CCC(c2ncc3[nH]c(-c4cn5ncnc5c(C)c4C)c(C(C)C)c3c2C)CC1 (centres unmarked) [Example 143]
6640 | 15900 | 258 | – | – | – | CNCCN1CCC(c2cc3c(C)c(-c4ccc(OC)c(OC)c4)[nH]c3cn2)CC1 [Example 8]
2.5 | 5.6 | 447 | – | – | – | COc1cc(-c2[nH]c3cnc(C4CCC(N5CCC5)CC4)c(F)c3c2C(C)C)cn2ncnc12 (centres unmarked) [Example 75]
3.9 | 16 | 786 | – | – | – | COc1cc(-c2[nH]c3cnc(C4CCN(C5COC5)CC4)cc3c2C(C)C)cn2ncnc12 [Example 306]
2.5 | 3.4 | > 50000 | – | – | – | Cc1c(-c2[nH]c3cnc(N4CCN(C5COC5)CC4)c(F)c3c2C(C)C)cn2ncnc2c1C [Example 409]
4.7 | 89 | 550 | – | – | – | COc1cc(-c2[nH]c3cnc(C4CCNCC4)c(C)c3c2C(C)C)cn2ncnc12 [Example 1, 6-(3-isopropyl-4-methyl-5-(piperidin-4-yl)-1H-pyrrolo[2,3-c]pyridin-2-yl)-8-methoxy-[1,2,4] triazolo[1,5-a]pyridine]
2.6 | 1.1 | 924 | – | – | – | Cc1c(-c2[nH]c3cnc(C4CCC(NC(C)C)CC4)c(F)c3c2C(C)C)cn2ncnc2c1C (centres unmarked) [Example 85]
4.9 | – | – | 0.49 | 15500 | – | Cc1c(-c2[nH]c3cnc(N4CCN(C(=O)CN(C)C)C[C@H]4C)c(F)c3c2C(C)C)cn2ncnc2c1C [Example 470]
49 | 86 | 477 | – | – | – | CNC(=O)CN1CCC(c2cc3c(C(C)C)c(-c4cn5ncnc5c(C)c4C)[nH]c3cn2)CC1 [Example 27]
29 | 6.1 | > 50000 | – | – | – | CNC(=O)CN1CCN(c2ncc3[nH]c(-c4cn5ncnc5c(C)c4C)c(C(C)C)c3c2C)CC1 [Example 413]
1 | 0.6 | 12700 | – | – | – | Cc1cc(-c2[nH]c3cnc(N4CCC(NC5(C)COC5)CC4)c(F)c3c2C(C)C)cn2ncnc12 [Example 43]
5.6 | 7.8 | 1480 | – | – | – | CCCN1CC2(C1)CN(c1ncc3[nH]c(-c4cc(OC)c5ncnn5c4)c(C(C)C)c3c1F)C2 [Example 380]
12 | 28 | 677 | – | – | – | CNCC(=O)NC1CCN(c2cc3c(C(C)C)c(-c4cc(OC)c5ncnn5c4)[nH]c3cn2)CC1 [Example 339]
1.4 | 1.7 | 837 | – | – | – | Cc1cc(-c2[nH]c3cnc(C4CCC(NCC(C)(C)C)CC4)c(F)c3c2C(C)C)cn2ncnc12 (centres unmarked) [Example 260]
5.7 | 6.8 | 396 | – | – | – | CCN(C)C1CCC(c2cc3c(C(C)C)c(-c4cc(OC)c5ncnn5c4)[nH]c3cn2)C1 (centres unmarked) [Example 248]
3 | 3.6 | 842 | – | – | – | COc1cc(-c2[nH]c3cnc(C4CCC(N(C)CC(=O)N(C)C)CC4)c(F)c3c2C(C)C)cn2ncnc12 (centres unmarked) [Example 79]
4 | 9.3 | 6550 | – | – | – | COc1cc(-c2[nH]c3cnc(N4CCN(C(C)C)C[C@H]4C)c(F)c3c2C(C)C)cn2ncnc12 [Example 443]
3.4 | 30 | 1110 | – | – | – | CNC(=O)CN(C)C1CCC(c2cc3c(C(C)C)c(-c4cc(OC)c5ncnn5c4)[nH]c3cn2)CC1 (centres unmarked) [Example 338]
8.6 | 1.4 | 294 | – | – | – | COc1cc(-c2[nH]c3cnc(C4CCC(N5CC6(COC6)C5)C4)cc3c2C(C)C)cn2ncnc12 (centres unmarked) [Example 118]
1.6 | 8.3 | 91 | – | – | – | COc1cc(-c2[nH]c3cnc(C4CCN(CC(N)=O)CC4)c(C)c3c2C(C)C)cn2ncnc12 [Example 11]
1.1 | – | – | 1.5 | 1970 | – | Cc1c(-c2[nH]c3cnc(N4CCN(C5CCN(C(C)C)CC5)C[C@H]4C)c(F)c3c2C(C)C)cn2ncnc2c1C [Example 462]

IC50 [1] [nM] | IC50 [2, 4] [nM] | IC50 [3, 5] [nM] | IC50 [2, 6] [nM] | IC50 [3, 7] [nM] | IC50 [3] [nM] | SMILES
2.6 | 3.4 | 147 | – | – | – | Cc1c(-c2[nH]c3cnc(C4CCN(CC(N)=O)CC4)cc3c2C(C)C)cn2ncnc2c1C [Example 23]
1.7 | 3.5 | 257 | – | – | – | COc1cc(-c2[nH]c3cnc(N4CCC(NC(=O)CN(C)C)CC4)cc3c2C(C)C)cn2ncnc12 [Example 344]
2.5 | 2.7 | > 50000 | – | – | – | CNC(=O)CN1CCN(c2ncc3[nH]c(-c4cc(OC)c5ncnn5c4)c(C(C)C)c3c2F)CC1 [Example 359]
2.4 | 12 | 512 | – | – | – | COc1cc(-c2[nH]c3cnc(C4CCC(NCC(C)(C)C)CC4)cc3c2C(C)C)cn2ncnc12 (centres unmarked) [Example 325]
2.9 | 25 | 356 | – | – | – | Cc1cc(-c2[nH]c3cnc(C4CCN(CC(=O)N(C)C)CC4)cc3c2C(C)C)cn2ncnc12 [Example 299]
1270 | 708 | 11500 | – | – | – | COc1cc(-c2[nH]c3cnc(C4CCC(N(C)C)CC4)cc3c2C(C)C)cn2ncnc12 (centres unmarked) [Example 340]
16 | 13 | > 50000 | – | – | – | Cc1c(-c2[nH]c3cnc(N4CCN(C5COC5)CC4)c(C)c3c2C(C)C)cn2ncnc2c1C [Example 417, 6-(3-isopropyl-4-methyl-5-(4-(oxetan-3-yl)piperazin-1-yl)-1H-pyrrolo[2,3-c]pyridin-2-yl)-7,8-dimethyl-[1,2,4]triazolo[1,5-a]pyridine]
13 | 2.6 | 733 | 2.6 | 733 | – | Cc1c(-c2[nH]c3cnc(C4CCC(NCC(C)(C)C)CC4)c(F)c3c2C(C)C)cn2ncnc2c1C (centres unmarked) [Example 234]
3.5 | 11 | 285 | – | – | – | COc1cc(-c2[nH]c3cnc(C4CCC(NC5CCOCC5)CC4)c(C)c3c2C(C)C)cn2ncnc12 (centres unmarked) [Example 241]
3.6 | 4.5 | 2060 | – | – | – | Cc1cc(-c2[nH]c3cnc(C4CCC(NC5COC5)CC4)c(F)c3c2C(C)C)cn2ncnc12 (centres unmarked) [Example 107]
3.3 | 14 | 750 | – | – | – | Cc1c(-c2[nH]c3cnc(C4CCC(NC5COC5)CC4)cc3c2C(C)C)cn2ncnc2c1C (centres unmarked) [Example 346]
2.6 | 0.49 | 4330 | – | – | – | Cc1c(-c2[nH]c3cnc(N4CCC(NCC(C)(C)C)CC4)c(F)c3c2C(C)C)cn2ncnc2c1C [Example 167]
0.83 | 2 | 1210 | – | – | – | CCN(C)C1CCC(c2ncc3[nH]c(-c4cc(C)c5ncnn5c4)c(C(C)C)c3c2F)CC1 (centres unmarked) [Example 199]
1.1 | 0.38 | 6160 | – | – | – | CCN1CCN(c2ncc3[nH]c(-c4cc(OC)c5ncnn5c4)c(C(C)C)c3c2F)CC1 [Example 389]
5.6 | 19 | 896 | – | – | – | CNCC(=O)N1CCC(c2ncc3[nH]c(-c4cc(OC)c5ncnn5c4)c(C(C)C)c3c2F)CC1 [Example 10]
28 | 22 | > 50000 | – | – | – | COc1cc(-c2[nH]c3cnc(N4CCN(CC(=O)N5CCOCC5)C[C@H]4C)c(F)c3c2C(C)C)cn2ncnc12 [Example 448]
0.51 | – | – | 0.73 | 1290 | – | COc1cc(-c2[nH]c3cnc(C4CCC(N5CC6(COC6)C5)CC4)c(F)c3c2C(C)C)cn2ncnc12 (centres unmarked) [Example 226]
409 | 4.1 | – | – | – | > 50000 | Cc1c(-c2[nH]c3cnc(N4CC5(CN(C(=O)CN6CCOCC6)C5)C4)c(F)c3c2C(C)C)cn2ncnc2c1C [Example 399, 1-(6-(2-(7,8-dimethyl-[1,2,4]triazolo[1,5-a]pyridin-6-yl)-4-fluoro-3-isopropyl-1H-pyrrolo[2,3-c]pyridin-5-yl)-2,6-diazaspiro[3.3]heptan-2-yl)-2-morpholinoethan-1-one]
11 | 14 | 401 | – | – | – | COc1cc(-c2[nH]c3cnc(C4CCC(NC5COC5)CC4)c(C)c3c2C(C)C)cn2ncnc12 (centres unmarked) [Example 242]
20 | 16 | 30700 | – | – | – | COc1cc(-c2[nH]c3cnc(N4CCC(N(C)CC(F)F)CC4)c(F)c3c2C(C)C)cn2ncnc12 [Example 189]
1.1 | 5.5 | 255 | – | – | – | COc1cc(-c2[nH]c3cnc(C4CCC(NC5COC5)CC4)cc3c2C(C)C)cn2ncnc12 (centres unmarked) [Example 330]
2.5 | 2 | 1510 | – | – | – | COc1cc(-c2[nH]c3cnc(C4CCN(CC(=O)N(C)C)CC4)c(F)c3c2C(C)C)cn2ncnc12 [Example 34]
4.5 | 20 | 258 | – | – | – | COc1cc(-c2[nH]c3cnc(C4CCC(NC(C)C)CC4)cc3c2C(C)C)cn2ncnc12 (centres unmarked) [Example 323]
